Converted amounts (≈) assume the structure as drawn.
Key:
Staphylococcus aureus BB [1] = test: In vivo antibacterial test, experimental infection in mouse; settings: Staphylococcus aureus BB infection (intraperitoneal), male ICR mice 26±1 g, drug orally, 7 days observation, probit analysis
Experimental: (§1) The in vivo antibacterial activity of 14-hydroxy-6-O-methylerythromycin A was measured by effect of treatment on experimental infectious diseases in mouse. 6-O-methylerythromycin A and erythromycin A were used as comparative drugs. Staphylococcus aureus BB and Streptococcus pneumoniae IID 553 were used as experimental infectious diseases of mouse. Ten male ICR mice, weighing 26±1 g, were used for each group to a different concentration of one drug. The bacteria were administered intraperitoneally to each groups of […] for infection. 14-hydroxy-6-O-methylerythromycin A, 6-O-methylerythromycin A and erythromycin A were administered orally to different groups of mice. After observing for 7 days, ED50 value was calculated from the number of mice serviving.
(§2) The ED50 values having 95% confidence limits were estimated by probit analysis.

[2] = test system: Streptococcus pneumoniae IID 553; test: as above; settings: Streptococcus pneumoniae IID 553 infection (intraperitoneal), male ICR mice 26±1 g, drug orally, 7 days observation, probit analysis
Experimental: as §1, §2

Solubility = type: physicochemical
[3] = test system: Gram-negative bacteria, especially Neisseria gonorroeae and Haemophilus influenzae; test: In vitro antibacterial activity (general statement); type: cell-based; settings: some Gram-negative bacteria
[4] = test system: Haemophilus influenzae J-48; test: In vitro antibacterial activity (MIC method of the Japan Chemotherapeutic Society); type: cell-based; settings: J48, read-out: MIC (minimum inhibitory concentration)
Experimental: (§3) The antibacterial activity (MIC: minimum inhibitory concentration) of 14-hydroxy-6-O-methylerythromycin A was measured according to the MIC method specified by the Japan Chemotherapeutic Society.

[5] = test system: Staphylococcus aureus Smith 4; test: as above; type: cell-based; settings: SMITH4, read-out: MIC (minimum inhibitory concentration)
Experimental: as §3

[6] = test system: Escherichia coli NIHJ JC-2; test: as above; type: cell-based; settings: NIHJJC2, read-out: MIC (minimum inhibitory concentration)
Experimental: as §3

[7] = test system: Enterococcus faecalis ATCC 8043; test: as above; type: cell-based; settings: ATCC8043, read-out: MIC (minimum inhibitory concentration)
Experimental: as §3

[8] = test system: Micrococcus luteus ATCC 9341; test: as above; type: cell-based; settings: ATCC9341, read-out: MIC (minimum inhibitory concentration)
Experimental: as §3

[9] = test system: Staphylococcus pneumoniae IDD 553; test: as above; type: cell-based; settings: IDD553, read-out: MIC (minimum inhibitory concentration)
Experimental: as §3

[10] = test system: Staphylococcus aureus 209P-JC; test: as above; type: cell-based; settings: read-out: MIC (minimum inhibitory concentration)
Experimental: as §3

[11] = test system: Neisseria gonorrhoeae TCC-4; test: as above; type: cell-based; settings: TCC4, read-out: MIC (minimum inhibitory concentration)
Experimental: as §3

Branhamella catarrhalis = test: as above; type: cell-based; settings: Moraxella catarrhalis, read-out: MIC (minimum inhibitory concentration)
Experimental: as §3

[12] = test system: Staphylococcus pyogenes IID 689; test: as above; type: cell-based; settings: Streptococcus pyogenes, IID689, read-out: MIC (minimum inhibitory concentration)
Experimental: as §3

Micrococcus luteus NIHJ = test: as above; type: cell-based; settings: read-out: MIC (minimum inhibitory concentration)
Experimental: as §3

Salmonella enteritidis = test: as above; type: cell-based; settings: Salmonella enterica, read-out: MIC (minimum inhibitory concentration)
Experimental: as §3

Staphylococcus aureus BB [13] = test: as above; type: cell-based; settings: read-out: MIC (minimum inhibitory concentration)
Experimental: as §3

[14] = test system: Klebsiella pneumoniae IFO 3317; test: as above; type: cell-based; settings: IFO3317, read-out: MIC (minimum inhibitory concentration)
Experimental: as §3

[15] = test system: Staphylococcus pneumoniae IDD 552; test: as above; type: cell-based; settings: IDD552, read-out: MIC (minimum inhibitory concentration)
Experimental: as §3

[16] = test system: Staphylococcus epidermidis IID 866; test: as above; type: cell-based; settings: IID866, read-out: MIC (minimum inhibitory concentration)
Experimental: as §3

[17] = test system: Bacillus subtilis ATCC 6633; test: as above; type: cell-based; settings: ATCC6633, read-out: MIC (minimum inhibitory concentration)
Experimental: as §3

Gram-positive bacteria [18] = test: In vitro antibacterial activity (general statement); type: cell-based
Gram-positive bacteria [19] = test: In vivo antibacterial activity (general statement, effective amount)
[20] = Acute toxicity (LD50) in ICR mice; settings: mouse, in vivo, intravenous administration

CC[C@H]1OC(=O)[C@H](C)[C@@H](O[C@H]2C[C@@](C)(OC)[C@@H](O)[C@H](C)O2)[C@H](C)[C@@H](O[C@@H]2O[C@H](C)C[C@H](N(C)C)[C@H]2O)[C@](C)(O)C[C@@H](C)C(=O)[C@H](C)[C@@H](O)[C@]1(C)O [Erythromycin A, erythromycin A]
ED50 (Staphylococcus aureus BB [1]): 2.20 mg/mouse | ED50 [2]: 1.43 mg/mouse

CO[C@]1(C)C[C@@H](C)C(=O)[C@H](C)[C@@H](O)[C@](C)(O)[C@@H](C(C)O)OC(=O)[C@H](C)[C@@H](O[C@H]2C[C@@](C)(OC)[C@@H](O)[C@H](C)O2)[C@H](C)[C@H]1O[C@@H]1O[C@H](C)C[C@H](N(C)C)[C@H]1O (stereo partly drawn) [14-hydroxy-6-O-methylerythromycin A]
Solubility (Solubility; in chloroform, methanol, ethanol, acetone, ethyl acetate and pyridine): Soluble | Solubility (Solubility; in ethyl ether, n-hexane, petroleum ether, benzene and water): Poorly soluble | ED50 (Staphylococcus aureus BB [1]): 0.234 mg/mouse | ED50 [2]: 0.069 mg/mouse | in vitro antibacterial activity [3]: strong | MIC [4]: 3.13 µg/mL (≈ 4.1 µM) | MIC [5]: 0.2 µg/mL (≈ 0.262 µM) | MIC [6]: 50 µg/mL (≈ 65.4 µM) | MIC [7]: 0.05 µg/mL (≈ 0.0654 µM) | MIC [8]: 0.025 µg/mL (≈ 0.0327 µM) | MIC [9]: 0.025 µg/mL (≈ 0.0327 µM) | MIC [10]: 0.1 µg/mL (≈ 0.131 µM) | MIC [11]: 0.39 µg/mL (≈ 0.51 µM) | MIC (Branhamella catarrhalis): 0.05 µg/mL (≈ 0.0654 µM) | MIC [12]: 0.025 µg/mL (≈ 0.0327 µM) | MIC (Micrococcus luteus NIHJ): 0.05 µg/mL (≈ 0.0654 µM) | MIC (Salmonella enteritidis): 25 µg/mL (≈ 32.7 µM) | MIC (Staphylococcus aureus BB [13]): 0.2 µg/mL (≈ 0.262 µM) | MIC [14]: 25 µg/mL (≈ 32.7 µM) | MIC [15]: 0.025 µg/mL (≈ 0.0327 µM) | MIC [16]: 0.2 µg/mL (≈ 0.262 µM) | MIC [17]: 0.1 µg/mL (≈ 0.131 µM) | in vitro antibacterial activity (Gram-positive bacteria [18]): strong | in vivo antibacterial activity against some Gram-positive bacteria (Gram-positive bacteria [19]; compared with 6-O-methylerythromycin A): stronger | ED50 (Gram-positive bacteria [19]; general statement): 3 to 10 mg/kg | LD50 [20]: 560 mg/kg

CC[C@H]1OC(=O)[C@H](C)[C@@H](O[C@H]2C[C@@](C)(OC)[C@@H](O)[C@H](C)O2)[C@H](C)[C@@H](O[C@@H]2O[C@H](C)C[C@H](N(C)C)[C@H]2O)[C@](C)(OC)C[C@@H](C)C(=O)[C@H](C)[C@@H](O)[C@]1(C)O [6-O-Methyl-erythromycin A, 6-O-methylerythromycin A]
ED50 (Staphylococcus aureus BB [1]): 0.394 mg/mouse | ED50 [2]: 0.222 mg/mouse

Source: patent US4975370A, “Process for preparing 14-hydroxy-6-O-methyl-erythromycin A” (Taisho Pharmaceutical Co., Ltd., priority 1986, dated 1990)
